Tested on: female diabetic dbdb-mice
Experiment: Glucose lowering in female diabetic dbdb-mice
Type: in vivo, mouse
Conditions: 100 μg/kg s.c.
Method: Female diabetic dbdb-mice (BKS.Cg-+Leprdb/+Leprdb/OlaHsd) 10 weeks of age at study start were used. Mice were habituated to feeding and housing conditions for at least 2 weeks. 7 days prior to study start, HbA1c were determined to allocate mice to groups, aiming to spread low, medium and high HbA1c-values and in consequence the group-means (n=8), as equally as possible. On the day of study, food was removed, directly before sampling for baseline glucose assessment (t=0 min). Immediately afterwards, compounds or vehicle (phosphor buffered saline, PBS) were administered subcutaneously, 100 μg/kg, 10 ml/kg. Afterwards, blood samples were drawn by tail tip incision at 15, 30, 60, 90, 120, 150, 180, 240, 360, 480 min and 24 h. Food was re-offered after the 480 min-sampling.
Data were analysed by 2-W-ANOVA on repeated measurements, followed by Dunnett's test as post-hoc assessment, level of significance p<0.05.

Row | Substance | maximal effect, glucose reduction (non-fasted female db/db mice, baseline on average 28 mmol/l) [mmol/L] | reduction of glucose compared to vehicle control (female db/db mice, from t=60 min until 240 min, p<0.05)
1 | H-Aib-HGTFTSDLSKQLDEQLAKDFIEWLIAGGPSSGAPPPS-NH2 [SEQ ID NO: 9] | ~12 | –
2 | HSHGTFTSDLSKQLDEQLAKDFIEWLIAGGPSSGAPPPS-NH2 [SEQ ID NO: 10] | – | statistical significant reduction of glucose

Source: patent US20150166625A1 (Sanofi, priority 2013, published 2015)
